Earlier results on one compound are cited in US20100285081A1, “Bactericidal Nanofibers, and Methods of Use Thereof” (MASSACHUSETTS INSTITUTE OF TECHNOLOGY, priority 2007, published 2010).

One data set relates to S. epidermidis. The following applies: from Buxbaum et al. 2006.
Another data set concerns E. coli. The following applies: from Buxbaum et al. 2006.

On to `[H]/N=C(\N/C(=N/[H])NCCCCCCNC(=N)NC(=N)Nc1ccc(Cl)cc1)Nc1ccc(Cl)cc1` [CHX, chlorhexidine], for which the “minimum inhibitory concentration of CHX” value was 0.5 to 2 µg/mL in the data set with S. epidermidis and 2 to 8 µg/mL in the data set on E. coli.
